Experimental data as given in patent US5817669A, “Compounds, processes for the preparation thereof and anti-tumor agents” (Dainippon Pharmaceutical Co., Ltd., priority 1994, dated 1998).
Read-outs that look alike come from different tables or passages of the source.

Assays:
[1] = test system: colon 26 murine tumor cells; assay: Tumor growth inhibition effect on colon 26 murine tumor cells implanted mice; assay type: in vivo, SLC: CDF1 mice; conditions: Mus musculus, Colon 26, 504 h; ip, 1.56 mg/kg once a day, days 1-9; day 21 or 22; read-out: Tumor growth inhibition rate IR (%)
Procedure, shortened: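 CDF1 female mice (7–9 weeks, 7 per group) implanted intracutaneously in the abdomen with 2% brei of colon 26 cells. Compound given ip once daily from day 1 to day 9. Tumor weight estimated from diameters on day 21 or 22; IR % = [1 − (treated MTW/control MTW)] × 100.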

[2] = test system: murine P388 lymphocytic leukemia cells; assay: Increases in life span of mice implanted with murine P388 lymphocytic leukemia cells; assay type: in vivo, SLC: BDF1 mice; conditions: Mus musculus, P388, ip, 720 h, ip
C33A human cervix cancer = assay: In vitro anti-tumor activity against C-33A human cervix cancer (MTT); assay type: cell-based; conditions: C-33A, 72 h, MTT, read-out: IC50
Procedure, shortened: (§1)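 Read-out is MTT formazan, dissolved in dimethyl sulfoxide after a 4-hour MTT (5 mg/ml) incubation. Before that, seeded cells (500 to 2,000 per well) grew 20 hours at 37° C and then received compound for 72 hours.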

Acute toxicity = conditions: mouse, in vivo; Intraperitoneal administration (ip), mice, 14th day
Experimental: Solutions of test compounds in predetermined concentrations were administered (0.1 ml/10 g body weight) to female BALB/c CrSlc mice (5 to 10 animals per one group, 10 weeks old) respectively, and, thus, LD50 values were calculated from the mortalities of the mice on the 14th day after the administration.

A427 human lung cancer = assay: In vitro anti-tumor activity against A-427 human lung cancer (MTT); assay type: cell-based; conditions: A-427, 72 h, MTT, read-out: IC50
Procedure, shortened: as §1

[3] = test system: murine P388 lymphocytic leukemia cells; assay: In vitro anti-tumor activity against murine P388 lymphocytic leukemia cells (MTT, 72 h); assay type: cell-based; conditions: Mus musculus; murine P388 cells, 72 h, MTT; read-out: IC50 (50% proliferation inhibitory concentration)
Procedure, shortened: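 MTT assay, 72 h exposure; formazan dissolved in DMSO after centrifugation and supernatant removal. Absorbance read at 570 nm with 690 nm reference. IC50 (μg/ml) by least squares.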

HMV2 human melanoma = assay: In vitro anti-tumor activity against HMV-2 human melanoma (MTT); assay type: cell-based; conditions: HMV-2, 72 h, MTT, read-out: IC50
Procedure, shortened: as §1

[4] = test system: AZ521 human stomach cancer; assay: In vitro anti-tumor activity against AZ-521 human stomach cancer (MTT); assay type: cell-based; conditions: AZ-521, 72 h, MTT, read-out: IC50
Procedure, shortened: as §1

[5] = test system: MKN45 human stomach cancer; assay: In vitro anti-tumor activity against MKN45 human stomach cancer (MTT); assay type: cell-based; conditions: MKN-45, MKN45, 72 h, MTT, read-out: IC50
Procedure, shortened: as §1

[6] = NCI criterion, read-out: Evaluation
[7] = days 1 and 5, in solution, read-out: ILS (%) (in solution)
[8] = days 1 and 5, in suspension, read-out: ILS (%) (in suspension)

**Q.** Which inhibition in vivo at 1.56 mg/kg [1] does the source give for `CN[C@@H]1CN(c2ccc3c(=O)c(C(=O)O)cn(-c4nccs4)c3n2)C[C@H]1OC.Cl` (relative stereo) [Compound 1-1, 1,4-dihydro-7-(trans-3-methoxy-4-methylamino-1-pyrrolidinyl)-4-oxo-1-(2-thiazolyl)-1,8-naphthyridine-3-carboxylic acid hydrochloride] here?
**A.** 86%

**Q.** And the ILS at 0.78 mg/kg [2, 6]?
**A.** 20 to 74%

**Q.** And the ILS at 1.56 mg/kg [2, 6]?
**A.** 20 to 74%

**Q.** And the ILS at 3.13 mg/kg [2, 6]?
**A.** > 75%

**Q.** And the ILS at 6.25 mg/kg [2, 6]?
**A.** > 75%

**Q.** What about the ILS at 12.5 mg/kg [2, 6] of the same compound?
**A.** > 75%

**Q.** And the ILS at 25 mg/kg [2, 6]?
**A.** > 75%

**Q.** What about the ILS at 50 mg/kg [2, 6] of the same compound?
**A.** > 75%

**Q.** What about the ILS at 0.78 mg/kg [2, 7] of the same compound?
**A.** 50%

**Q.** What about the ILS at 1.56 mg/kg [2, 7] of the same compound?
**A.** 63%

**Q.** And the ILS at 3.13 mg/kg [2, 7]?
**A.** 100%

**Q.** And the ILS at 3.13 mg/kg [2, 8]?
**A.** 88%

**Q.** And the ILS at 6.25 mg/kg [2, 7]?
**A.** 125%

**Q.** And the ILS at 12.5 mg/kg [2, 7]?
**A.** 150%

**Q.** And the ILS at 12.5 mg/kg [2, 8]?
**A.** 175%

**Q.** What about the ILS at 25 mg/kg [2, 7] of the same compound?
**A.** 200%

**Q.** What about the ILS at 50 mg/kg [2, 7] of the same compound?
**A.** > 275%

**Q.** And the IC50 (C33A human cervix cancer)?
**A.** 0.137 µg/mL

**Q.** And the LD50 at 336 h (Acute toxicity)?
**A.** 93.2 mg/kg

**Q.** And the solubility (physchem; 0.1 m phosphate buffer, pH 7.2, aqueous buffer)?
**A.** 20.1 mg/mL

**Q.** And the solubility (physchem; water)?
**A.** 2.9 mg/mL

**Q.** What about the IC50 (A427 human lung cancer) of the same compound?
**A.** 0.0871 µg/mL

**Q.** What about the IC50 [3] of the same compound?
**A.** 0.0107 µg/mL

**Q.** What about the IC50 (HMV2 human melanoma) of the same compound?
**A.** 0.131 µg/mL

**Q.** And the IC50 [4]?
**A.** 0.0561 µg/mL

**Q.** And the IC50 [5]?
**A.** 0.15 µg/mL
